Results reported in the supplement of paper PMC11061612.

What was measured:
Trametinib = compound: CC(=O)Nc1cccc(-n2c(=O)n(C3CC3)c(=O)c3c(Nc4ccc(I)cc4F)n(C)c(=O)c(C)c32)c1 [Trametinib]; details: max 1 µM
Summary of the method: (§1)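 Following 24 hours at 37°C and 5% CO2, cancer cell lines in 1536-well plates with 7.5 μl DMEM/F12 or RPMI and 10% FBS were dosed for 72 hours, final DMSO typically being 0.2%. CellTiter-Glo 2.0 luminescence, scaled between blank-well and DMSO-well means, gave the viability readout. Dose responses were fitted to a two-parameter logistic curve with a non-linear mixed effects model, and the single-agent IC50 was derived from this fit.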

AZD7648 = compound: Cc1cc2ncnn2cc1Nc1ncc2c(n1)n(C1CCOCC1)c(=O)n2C [AZD7648]; details: max 10 µM
Summary of the method: as §1

Alisertib = compound: COc1cc(Nc2ncc3c(n2)-c2ccc(Cl)cc2C(c2c(F)cccc2OC)=NC3)ccc1C(=O)O [Alisertib]; details: max 10 µM
Summary of the method: as §1

AZD5153 = compound: COc1nnc2ccc(N3CCC(c4ccc(OCCN5CCN(C)C(=O)[C@H]5C)cc4)CC3)nn12 [AZD5153]; details: max 1 µM
Summary of the method: as §1

Taselisib = compound: Cc1nc(-c2cn3c(n2)-c2ccc(-c4cnn(C(C)(C)C(N)=O)c4)cc2OCC3)n(C(C)C)n1 [Taselisib]; details: max 10 µM
Summary of the method: as §1

Doxorubicin = compound: COc1cccc2c1C(=O)c1c(O)c3c(c(O)c1C2=O)C[C@@](O)(C(=O)CO)C[C@@H]3O[C@H]1C[C@H](N)[C@H](O)[C@H](C)O1 [Doxorubicin]; details: max 1 µM
Summary of the method: as §1

SG3199 = compound: CC1=CN2[C@@H](C1)C=NC3=CC(=C(C=C3C2=O)OC)OCCCCCOC4=C(C=C5C(=C4)N=C[C@@H]6CC(=CN6C5=O)C)OC [SG3199]; details: max 0.001 µM
Summary of the method: as §1

AZD1775 = compound: C=CCn1c(=O)c2cnc(Nc3ccc(N4CCN(C)CC4)cc3)nc2n1-c1cccc(C(C)(C)O)n1 [AZD1775]; details: max 3 µM
Summary of the method: as §1

SN-38 = compound: CCc1c2c(nc3ccc(O)cc13)-c1cc3c(c(=O)n1C2)COC(=O)[C@]3(O)CC [SN-38]; details: max 0.3 µM
Summary of the method: as §1

Selumetinib = compound: Cn1cnc2c(F)c(Nc3ccc(Br)cc3Cl)c(C(=O)NOCCO)cc21 [Selumetinib]; details: max 10 µM
Summary of the method: as §1

Lapatinib = compound: CS(=O)(=O)CCNCc1ccc(-c2ccc3ncnc(Nc4ccc(OCc5cccc(F)c5)c(Cl)c4)c3c2)o1 [Lapatinib]; details: max 10 µM
Summary of the method: as §1

Venetoclax = compound: CC1(C)CCC(CN2CCN(c3ccc(C(=O)NS(=O)(=O)c4ccc(NCC5CCOCC5)c([N+](=O)[O-])c4)c(Oc4cnc5[nH]ccc5c4)c3)CC2)=C(c2ccc(Cl)cc2)C1 [Venetoclax]; details: max 1 µM
Summary of the method: as §1

Prexasertib = compound: COc1cccc(OCCCN)c1-c1cc(Nc2cnc(C#N)cn2)n[nH]1 [Prexasertib]; details: max 1 µM
Summary of the method: as §1

Dasatinib = compound: CC1=C(C(=CC=C1)Cl)NC(=O)C2=CN=C(S2)NC3=CC(=NC(=N3)C)N4CCN(CC4)CCO [Dasatinib]; details: max 2 µM
Summary of the method: as §1

Savolitinib = compound: C[C@@H](c1ccc2nccn2c1)n1nnc2ncc(-c3cnn(C)c3)nc21 [Savolitinib]; details: max 1 µM
Summary of the method: as §1

AZD4320 = compound: CN(CC[C@H](CSC1=CC=CC=C1)NC2=C(C=C(C=C2)S(=O)(=O)NC(=O)C3=CC=C(C=C3)N4CCC(CC4)[C@H](C5=CC=CC=C5C6=CC=C(C=C6)Cl)O)S(=O)(=O)C(F)(F)F)CCO [AZD4320]; details: max 1 µM
Summary of the method: as §1

AZD2811 = compound: CCN(CCO)CCCOc1ccc2c(Nc3cc(CC(=O)Nc4cccc(F)c4)[nH]n3)ncnc2c1 [AZD2811]; details: max 1 µM
Summary of the method: as §1

Crizotinib = compound: C[C@@H](Oc1cc(-c2cnn(C3CCNCC3)c2)cnc1N)c1c(Cl)ccc(F)c1Cl [Crizotinib]; details: max 10 µM
Summary of the method: as §1

AZD1390 = compound: CC(C)n1c(=O)n(C)c2cnc3cc(F)c(-c4ccc(OCCCN5CCCCC5)nc4)cc3c21 [AZD1390]; details: max 0.3 µM
Summary of the method: as §1

Capivasertib = compound: C1CN(CCC1(C(=O)N[C@@H](CCO)C2=CC=C(C=C2)Cl)N)C3=NC=NC4=C3C=CN4 [Capivasertib]; details: max 10 µM
Summary of the method: as §1

Olaparib = compound: O=C(c1cc(Cc2n[nH]c(=O)c3ccccc23)ccc1F)N1CCN(C(=O)C2CC2)CC1 [Olaparib]; details: max 10 µM
Summary of the method: as §1

AZD5991 = compound: Cc1c2c(nn1C)CSCc1cc(n(C)n1)CSc1cc(c3ccccc3c1)OCCCc1c(C(=O)O)n(C)c3c-2c(Cl)ccc13 [AZD5991]; details: max 1 µM
Summary of the method: as §1

AZD8186 = compound: C[C@@H](Nc1cc(F)cc(F)c1)c1cc(C(=O)N(C)C)cc2c(=O)cc(N3CCOCC3)oc12 [AZD8186]; details: max 3 µM
Summary of the method: as §1

AZD0156 = compound: CN(C)CCCOc1ccc(-c2ccc3ncc4c(c3c2)n(C2CCOCC2)c(=O)n4C)cn1 [AZD0156]; details: max 3 µM
Summary of the method: as §1

Palbociclib = compound: CC(=O)c1c(C)c2cnc(Nc3ccc(N4CCNCC4)cn3)nc2n(C2CCCC2)c1=O [Palbociclib]; details: max 10 µM
Summary of the method: as §1

Gefitinib = compound: COc1cc2ncnc(Nc3ccc(F)c(Cl)c3)c2cc1OCCCN1CCOCC1 [Gefitinib]; details: max 10 µM
Summary of the method: as §1

AZD6738 = compound: C[C@@H]1COCCN1C2=NC(=NC(=C2)C3(CC3)[S@](=N)(=O)C)C4=C5C=CNC5=NC=C4 [AZD6738]; details: max 10 µM
Summary of the method: as §1

Cell Line | IC50, cell viability 72 h (Trametinib) | IC50, cell viability 72 h (AZD7648) | IC50, cell viability 72 h (Alisertib) | IC50, cell viability 72 h (AZD5153) | IC50, cell viability 72 h (Taselisib) | IC50, cell viability 72 h (Doxorubicin) | IC50, cell viability 72 h (SG3199) | IC50, cell viability 72 h (AZD1775) | IC50, cell viability 72 h (SN-38) | IC50, cell viability 72 h (Selumetinib) | IC50, cell viability 72 h (Lapatinib) | IC50, cell viability 72 h (Venetoclax) | IC50, cell viability 72 h (Prexasertib) | IC50, cell viability 72 h (Dasatinib) | IC50, cell viability 72 h (Savolitinib) | IC50, cell viability 72 h (AZD4320) | IC50, cell viability 72 h (AZD2811) | IC50, cell viability 72 h (Crizotinib) | IC50, cell viability 72 h (AZD1390) | IC50, cell viability 72 h (Capivasertib) | IC50, cell viability 72 h (Olaparib) | IC50, cell viability 72 h (AZD5991) | IC50, cell viability 72 h (AZD8186) | IC50, cell viability 72 h (AZD0156) | IC50, cell viability 72 h (Palbociclib) | IC50, cell viability 72 h (Gefitinib) | IC50, cell viability 72 h (AZD6738)
KMS-12-BM (Plasma Cell Myeloma) | > 1000 nM | > 10000 nM | 3570 nM | 13.4 nM | 2430 nM | 891 nM | > 1 nM | 329 nM | 24.8 nM | > 10000 nM | 7080 nM | 16.4 nM | 17 nM | > 2000 nM | > 1000 nM | 17.3 nM | > 1000 nM | 3540 nM | > 300 nM | 9310 nM | > 10000 nM | 13.9 nM | > 3000 nM | > 3000 nM | 3660 nM | > 10000 nM | –
MOLM-13 (Acute Myeloid Leukemia) | 24.2 nM | > 10000 nM | 52.7 nM | 28.9 nM | 6310 nM | 40 nM | > 1 nM | 160 nM | 3.55 nM | 4040 nM | > 10000 nM | 23.5 nM | 5.31 nM | 932 nM | > 1000 nM | 6.77 nM | 18.9 nM | 1230 nM | > 300 nM | 1870 nM | 6770 nM | 46.5 nM | > 3000 nM | > 3000 nM | 605 nM | 4320 nM | 584 nM
NCI-H661 (Non-Small Cell Lung Carcinoma) | > 1000 nM | > 10000 nM | > 10000 nM | > 1000 nM | > 10000 nM | > 1000 nM | > 1 nM | 765 nM | > 300 nM | > 10000 nM | > 10000 nM | > 1000 nM | 46.8 nM | > 2000 nM | > 1000 nM | > 1000 nM | > 1000 nM | > 10000 nM | > 300 nM | > 10000 nM | > 10000 nM | > 1000 nM | > 3000 nM | > 3000 nM | > 10000 nM | > 10000 nM | > 10000 nM
PC-3 (Prostate Carcinoma) | > 1000 nM | > 10000 nM | > 10000 nM | > 1000 nM | > 10000 nM | > 1000 nM | > 1 nM | > 3000 nM | 82.7 nM | > 10000 nM | > 10000 nM | > 1000 nM | > 1000 nM | > 2000 nM | > 1000 nM | > 1000 nM | > 1000 nM | > 10000 nM | > 300 nM | > 10000 nM | > 10000 nM | > 1000 nM | > 3000 nM | > 3000 nM | > 10000 nM | > 10000 nM | > 10000 nM
